Reference: ChEMBL document CHEMBL3430912, “GSK Tres Cantos Anti-Kinetoplastid Screening (TCAKS) Data”

Assays:
Trypanosoma cruzi [1] = assay: GSK_TCAKS: pIC50 Trypanosoma cruzi viability assay using beta-GAL activity. This assay was run at single shot at 5uM compound concentration per well. The biological reagents consisted of NIH-3T3 host cells and trypomastigotes parasitic cells; both cell types were set to a 3.3 * 10^5 cells/mL dilution in assay DMEM by means of a CASY cell counter device using a 60um capillary. 6 uL of the mixture were dispensed per well (about 1 * 10^3 host-cells and 1 * 10^3 parasites) with a Multidrop Combi dispenser. […] In all wells, the percentage of DMSO never exceeded 0.5%. Plates incubated for four days at 37C, 5% CO2. The substrate used for the assay fluorescence intensity (FLINT) readout was resorufin-beta-D-galactopiranoside (Sigma-Aldrich) at 5uM per well. It was diluted in PBS supplemented with the soft detergent Igepal (Fluka).; format: functional, organism-based, Mus musculus; details: Tulahuen, NIH3T3
Trypanosoma cruzi [2] = assay: (§1) GSK_TCAKS: pIC50 Trypanosoma cruzi Imaging: Infected Cells. […] Cells were then washed once with PBS before infection. T. cruzi trypomastigotes, collected at days 5 to 8 after infection from LLC-MK2 parasite infected cultures, were allowed to swim out for 4h at 37C from a centrifuged pellet (2,500 rpm/10 min/room temperature). Trypomastigotes were then collected and counted in a CASY Cell Counter. Trypomastigotes, in supplemented DMEM, were added to H9c2 cultures in a multiplicity of infection of 1 and incubated for 18 h. Cells were washed once with PBS before incubation of the infected H9c2 monolayer with trypsin (Life-Technologies) to detach cells from the flask. Cells were counted in a CASY Cell Counter using a 150 um capillary and their density set at 5 * 10^4 cells per mL in supplemented assay DMEM. Infected H9c2 were dispensed into 384-well poly-lysine coated assay plates at 50uL per well using a Multidrop Combi dispenser. After seeding them, the plates were incubated at 37C, 5% CO2 for 72h. Cultures were then fixed and stained by addition of 50 uL of a solution containing 8% formaldehyde and 4 uM DRAQ5 DNA dye (BioStatus, UK) per well. […] Five images were collected per well for reliable statistical analysis. Automated image analysis was performed with a script developed on Acapella High Content Imaging and Analysis Software (PerkinElmer). Output: percentage of infected cells per well as a second infection marker.; format: functional, organism-based, Rattus norvegicus; details: H9c2, 4 h
Trypanosoma cruzi [3] = assay: GSK_TCAKS: pIC50 Trypanosoma cruzi Imaging: Amastigotes/Cell. […] Cells were then washed once with PBS before infection. T. cruzi trypomastigotes, collected at days 5 to 8 after infection from LLC-MK2 parasite infected cultures, were allowed to swim out for 4h at 37C from a centrifuged pellet (2,500 rpm/10 min/room temperature). Trypomastigotes were then collected and counted in a CASY Cell Counter. Trypomastigotes, in supplemented DMEM, were added to H9c2 cultures in a multiplicity of infection of 1 and incubated for 18 h. Cells were washed once with PBS before incubation of the infected H9c2 monolayer with trypsin (Life-Technologies) to detach cells from the flask. Cells were counted in a CASY Cell Counter using a 150 um capillary and their density set at 5 * 10^4 cells per mL in supplemented assay DMEM. Infected H9c2 were dispensed into 384-well poly-lysine coated assay plates at 50uL per well using a Multidrop Combi dispenser. After seeding them, the plates were incubated at 37C, 5% CO2 for 72h. Cultures were then fixed and stained by addition of 50 uL of a solution containing 8% formaldehyde and 4 uM DRAQ5 DNA dye (BioStatus, UK) per well. […] Five images were collected per well for reliable statistical analysis. Automated image analysis was performed with a script developed on Acapella High Content Imaging and Analysis Software (PerkinElmer). Output: number of amastigotes per cell as infection level measurement.; format: functional, organism-based, Rattus norvegicus; details: H9c2, 4 h
Trypanosoma cruzi [4] = assay: as §1, with “H2C9” for “Trypanosoma cruzi”, “H9c2 Host Cardiomyocytes.” for “Infected Cells.”, “Number” for “percentage”, “H9c2 Host Cardiomyocytes nuclei to determine drug-related cytotoxicity.” for “infected cells per well as a second infection marker.”; format: functional, organism-based, Rattus norvegicus; details: H9c2, 4 h
Leishmania donovani [5] = assay: GSK_TCAKS: pIC50 Leishmania donovani viability assay using fluorescence intensity. Assay plates (1536-well) were prepared by adding 30nL per well of compound. For single shot assay, the final compound concentration was 5uM. […] Briefly, eGFP LdBOB axenic amastigotes were harvested, fixed and counted in a CASY cell counter (Roche-Applied Science). A final concentration of 1.5 * 10^5 cells per well were prepared in amastigote media containing 500 U/mL penicillin/streptomycin (Invitrogen) and 6uL was dispensed to each experimental well using a Multidrop Combi dispenser (Thermo Scientific). 6uL of assay media was dispensed to control columns used as reference for 100% compound response. Following incubation for 72 h at 37C, 5% CO2, 2 uL of resazurin was added to each well at a final concentration of 0.5 mM in phosphate buffered saline (PBS) with IGEPAL (Sigma-Aldrich), 0.05% (v/v).; format: functional, organism-based
Leishmania donovani [6] = assay: GSK_TCAKS: pIC50 Leishmania donovani Imaging: Infected Macrophages. Assay plates (384-well) were prepared by adding 250nL of compound to each well. For single shot assay, the final compound concentration was 5 uM. […] Automated image analysis was performed with a script developed on Acapella High Content Imaging and Analysis Software (PerkinElmer). Output: Percent of infected macrophage cells were reported for each well.; format: functional, organism-based, Homo sapiens; details: THP-1
Leishmania donovani [7] = assay: GSK_TCAKS: pIC50 Leishmania donovani Imaging: Amastigotes/Macrophages. Assay plates (384-well) were prepared by adding 250nL of compound to each well. For single shot assay, the final compound concentration was 5 uM. […] Automated image analysis was performed with a script developed on Acapella High Content Imaging and Analysis Software (PerkinElmer). Output: Average number of amastigotes per macrophage cell were reported for each well.; format: functional, organism-based, Homo sapiens; details: THP-1
Leishmania donovani [8] = assay: GSK_TCAKS: pIC50 Leishmania donovani Imaging: THP-1 Host Macrophages. Assay plates (384-well) were prepared by adding 250nL of compound to each well. For single shot assay, the final compound concentration was 5 uM. […] Automated image analysis was performed with a script developed on Acapella High Content Imaging and Analysis Software (PerkinElmer). Output: THP-1 cell count were reported for each well.; format: functional, organism-based, Homo sapiens
[9] = tested on: Trypanosoma brucei brucei; assay: GSK_TCAKS: pIC50 Trypanosoma brucei viability assay using fluorescence intensity. Assay plates (1536-well) were prepared by dispensing 25nL of compound solution per well using an Echo acoustic dispenser (Labcyte).; format: functional, organism-based; details: Lister 427, 2 h
[10] = tested on: Trypanosoma brucei brucei; assay: GSK_TCAKS: pIC50 Trypanosoma brucei viability assay using luminiscence. Assay plates (1536-well) were prepared. T. brucei cultures were harvested and counted in a CASY cell counter. A parasite suspension was prepared at a final concentration of 5 * 10^4 cells/mL in complete HMI9 medium and 6uL was dispensed to all wells containing compounds using a Multidrop Combi dispenser. 6uL of HMI9 media with 0.4% DMSO were dispensed to control columns. Plates were incubated for 24 h at 37C, 5% CO2 then tempered for 10 min at room temperature. ATP content was quantified by adding 4 uL of CellTiter-Glo Reagent (Promega) according to the manufacturer's instructions. Luminescence was measured using a ViewLux.; format: functional, organism-based; details: Lister 427, CASY
[11] = GSK_TCAKS: pIC50 HepG2 human cell line viability assay using luminiscence. […] Seeding density was checked to ensure that new mono-layers were not more than 50% confluent at the time of harvesting. Cell suspension was added to 500 mL of the same medium at a final density of 1.2 * 10^5 cells/mL. This cell suspension was dispensed (25 uL, 3000 cells per well) into 384-well clear-bottom plates using a Multidrop Combi dispenser. Prior to addition of the cell suspension, the screening compounds (250 nL) were pre-dispensed into the plates with an Echo liquid handler. Plates were incubated for 48 h at 37C, 5% CO2. After incubation, plates equilibrated at room temperature for 30 min before proceeding to develop the luminescent signal. The signal developer, CellTiter-Glo Reagent, was allowed to equilibrate at room temperature for 30 min and added to the plates (25uL per well) using a Multidrop Combi dispenser. Plates were left for 10 min at room temperature for stabilization and then read using a ViewLux.; format: toxicity, cell-based
[12] = target: Sterol 14-alpha demethylase (Trypanosoma cruzi (strain CL Brener), UniProt Q7Z1V1); assay: GSK_TCAKS: pIC50 CYP51 from Trypanosoma cruzi.; format: functional
Chain of Sterol 14-alpha demethylase (Q7Z1V1 whole entry): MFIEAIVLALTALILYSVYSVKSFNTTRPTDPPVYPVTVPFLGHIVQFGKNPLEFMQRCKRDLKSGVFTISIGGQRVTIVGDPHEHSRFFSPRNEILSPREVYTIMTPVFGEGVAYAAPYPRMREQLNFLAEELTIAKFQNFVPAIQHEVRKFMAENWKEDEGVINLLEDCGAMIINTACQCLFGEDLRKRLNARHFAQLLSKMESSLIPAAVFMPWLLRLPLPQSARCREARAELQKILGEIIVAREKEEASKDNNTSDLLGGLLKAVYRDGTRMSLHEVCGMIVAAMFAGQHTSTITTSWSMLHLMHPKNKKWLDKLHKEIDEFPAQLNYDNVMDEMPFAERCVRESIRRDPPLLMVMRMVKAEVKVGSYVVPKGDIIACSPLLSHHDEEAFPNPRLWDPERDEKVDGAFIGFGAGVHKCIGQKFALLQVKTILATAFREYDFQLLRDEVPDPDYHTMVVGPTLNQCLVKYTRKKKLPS

| SMILES | IC50 (Trypanosoma cruzi [1]) [µM] | IC50 (Trypanosoma cruzi [2]) [µM] | IC50 (Trypanosoma cruzi [3]) [µM] | IC50 (Trypanosoma cruzi [4]) [µM] | IC50 (Leishmania donovani [5]) [µM] | IC50 (Leishmania donovani [6]) [µM] | IC50 (Leishmania donovani [7]) [µM] | IC50 (Leishmania donovani [8]) [µM] | IC50 [9] [µM] | IC50 [10] [µM] | IC50 at 48 h [11] [µM] | IC50 [12] [µM] |
| --- | --- | --- | --- | --- | --- | --- | --- | --- | --- | --- | --- | --- |
| CC(C)n1c(-c2nonc2N)nc2cccc(OCCN3CCCC3)c21 | 10 | 15.8 | 25.1 | 31.6 | > 50.1 | 31.6 | 20 | 31.6 | 0.794 | 0.794 | > 100 | 39.8 |
| Cc1ncsc1CNc1cnc(-c2ccc3c(c2)OCCO3)c(-c2cnn(C)c2)c1 | 12.6 | 39.8 | 20 | > 50.1 | 25.1 | 15.8 | 12.6 | 15.8 | 0.126 | 0.2 | > 100 | 7.94 |
| Cc1cc(Nc2cc(C3CC3)[nH]n2)nc(N2CCCC2)n1 | 0.0794 | 0.1 | 0.0794 | 0.251 | 0.794 | 0.158 | 0.0501 | 0.126 | 0.0501 | 0.0631 | 31.6 | > 100 |
| Cc1cc(Nc2cc(C3CC3)[nH]n2)nc(N2CCC[C@H]2C(N)=O)n1 | 0.126 | 0.0631 | 0.02 | 0.126 | 0.631 | 0.2 | 0.0794 | 0.126 | 0.0126 | 0.0631 | > 100 | > 100 |
| CS(=O)(=O)N1CCC(Nc2ncc(Br)c(Nc3cccc(F)c3C(N)=O)n2)CC1 | 0.316 | 1 | 0.398 | 0.158 | 0.1 | 1.58 | 0.794 | 1 | 0.01 | 0.0158 | > 100 | > 100 |
| NC(=O)c1cc(F)ccc1Nc1nc(N[C@H]2CC[C@H](O)CC2)ncc1Br | 2.51 | 2 | 0.794 | 0.501 | 1.58 | 0.794 | 0.631 | 0.398 | 0.0794 | 0.316 | 50.1 | 10 |
| O=C(c1cccc(Nc2ncc(-c3ccc4c(c3)OCO4)cn2)c1)N1CCSC1 | 2.51 | 0.251 | 0.2 | 1 | 1.26 | 2 | 1 | 12.6 | 12.6 | > 39.8 | 10 | 15.8 |
| NC(=O)c1cc(F)ccc1Nc1nc(N[C@H]2CC[C@H](O)CC2)ncc1Cl | 3.98 | 5.01 | 1.58 | 1.58 | 3.16 | 1.26 | 0.794 | 0.631 | 0.158 | 0.631 | > 100 | 31.6 |
| COc1ccc(Nc2nc(N[C@H]3CC[C@H](O)CC3)ncc2Br)c(C(N)=O)c1 | 3.98 | 3.16 | 2 | 0.794 | 3.16 | 1 | 0.631 | 0.398 | 0.1 | 0.251 | > 100 | 12.6 |
| COc1ccc(OC)c(S(=O)(=O)N(Cc2c(F)cccc2F)[C@@H]2CCN(C#N)C2)c1 | 6.31 | 12.6 | 6.31 | 15.8 | 15.8 | 25.1 | 20 | 20 | 0.631 | 0.794 | 79.4 | > 100 |
| COc1ccc2ncc(=O)n(CCN3CC[C@H](NCc4ncc(Cl)c5[nH]ncc45)[C@H](O)C3)c2n1 | 3.98 | 3.16 | 1.58 | > 50.1 | > 50.1 | > 50.1 | > 50.1 | > 50.1 | 0.316 | 0.501 | > 100 | > 100 |
